Data taken from the supplement of paper PMC10307832.

Compound: CC1(C)CNc2cc(NC(=O)c3cccnc3NCc3ccncc3)ccc21 [Motesanib]
Assay: relative viability (nuclei count vs DMSO), 5 days (fraction); higher = more cells survive
Conditions: 0.01 µM
In short: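 Viability is treated-well nuclei as a fraction of vehicle-well nuclei, reported as the median across plates. Before counting, lung cancer cell lines were kept overnight at 37 °C in 1536-well plates, pinned with five √10-spaced library-drug doses on vehicle-anchored plates, and left 5 days without medium change, then fixed, permeabilised and Hoechst-stained in one step, imaged at 4× and counted by MetaXpress. A plate passed only if control CV was below 25% and at least one doubling occurred.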

HCC-366 and NCI-H1666 are the same in relative viability: 1.04 for the first, 1.04 for the second.

Compared with NCI-H596, LK-2 is lower in relative viability: 1.2 for the first, 1.05 for the second.

Compared with NCI-H2087, SK-MES-1 is lower in relative viability: 1.14 for the first, 1.01 for the second.

First: H3255
Second: COR-L23
The relative viability of the first is lower: 0.905 for the first, 1.01 for the second.

Going from COR-L 105 to IA-LM, the relative viability falls from 1.05 to 0.927.

Compared with LOU-NH91, NCI-H2170 is lower in relative viability: 0.94 for the first, 0.928 for the second.

First: NCI-H2405
Second: HOP-62
The relative viability of the first is lower: 0.676 for the first, 1.06 for the second.

First: HCC-44
Second: A549
The relative viability of the first is higher: 0.978 for the first, 0.951 for the second.

Compared with LU99A, BEN is lower in relative viability: 0.911 for the first, 0.902 for the second.

Compared with HARA, HCC-78 is lower in relative viability: 0.959 for the first, 0.891 for the second.

Compared with NCI-H322M, LCLC-97TM1 is lower in relative viability: 1.04 for the first, 0.895 for the second.

Going from NCI-H2009 to A-427, the relative viability falls from 1.02 to 0.944.

Going from NCI-H661 to NCI-H1734, the relative viability falls from 0.972 to 0.968.

Compared with NCI-H460, NCI-H2347 is higher in relative viability: 0.999 for the first, 1.01 for the second.

First: SK-LU-1
Second: NCI-H1395
The relative viability of the first is higher: 0.979 for the first, 0.814 for the second.

First: 201T
Second: NCI-H1915
The relative viability of the first is higher: 0.982 for the first, 0.978 for the second.

Going from HCC-827 to LXF-289, the relative viability falls from 1.09 to 0.991.

Same assay, conditions: 0.03162 µM

First: Calu-6
Second: HCC-366
The relative viability of the first is lower: 0.98 for the first, 1.01 for the second.

Compared with NCI-H1666, NCI-H596 is lower in relative viability: 0.965 for the first, 0.921 for the second.

Going from LK-2 to NCI-H2087, the relative viability falls from 0.945 to 0.887.

First: SK-MES-1
Second: H3255
The relative viability of the first is lower: 1.02 for the first, 1.04 for the second.

Compared with COR-L23, COR-L 105 is lower in relative viability: 0.962 for the first, 0.875 for the second.

Going from IA-LM to LOU-NH91, the relative viability falls from 1.03 to 0.982.

Going from NCI-H2170 to NCI-H2405, the relative viability falls from 0.948 to 0.853.

Compared with HOP-62, HCC-44 is lower in relative viability: 1.04 for the first, 0.957 for the second.

Going from A549 to LU99A, the relative viability rises from 0.958 to 1.03.

Going from BEN to HARA, the relative viability rises from 0.964 to 1.1.

Going from HCC-78 to NCI-H322M, the relative viability rises from 0.957 to 0.993.

Going from LCLC-97TM1 to NCI-H2009, the relative viability rises from 0.961 to 0.993.

First: A-427
Second: NCI-H661
The relative viability of the first is lower: 1.01 for the first, 1.02 for the second.

Compared with NCI-H1734, NCI-H460 is lower in relative viability: 1.01 for the first, 0.974 for the second.

Going from NCI-H2347 to SK-LU-1, the relative viability rises from 1.04 to 1.05.

Going from NCI-H1395 to 201T, the relative viability rises from 0.84 to 0.971.

First: NCI-H1915
Second: HCC-827
The relative viability of the first is lower: 0.988 for the first, 1.08 for the second.

In the case of LXF-289, the relative viability is reported as 0.999.

Same assay, conditions: 0.1 µM

Compared with Calu-6, HCC-366 is lower in relative viability: 1 for the first, 0.991 for the second.

Going from NCI-H1666 to NCI-H596, the relative viability falls from 0.976 to 0.928.

Compared with LK-2, NCI-H2087 is higher in relative viability: 0.914 for the first, 1.06 for the second.

Going from SK-MES-1 to H3255, the relative viability falls from 1.06 to 0.978.

Going from COR-L23 to COR-L 105, the relative viability falls from 1.03 to 0.905.

First: IA-LM
Second: LOU-NH91
The relative viability of the first is lower: 0.957 for the first, 1.12 for the second.

First: NCI-H2170
Second: NCI-H2405
The relative viability of the first is lower: 0.939 for the first, 0.975 for the second.

Going from HOP-62 to HCC-44, the relative viability falls from 1.12 to 1.02.

Compared with A549, LU99A is lower in relative viability: 1 for the first, 0.905 for the second.

Going from BEN to HARA, the relative viability falls from 0.927 to 0.909.

Going from HCC-78 to NCI-H322M, the relative viability rises from 0.957 to 0.988.

First: LCLC-97TM1
Second: NCI-H2009
The relative viability of the first is lower: 0.95 for the first, 1.08 for the second.

Compared with A-427, NCI-H661 is higher in relative viability: 0.894 for the first, 0.985 for the second.

Compared with NCI-H1734, NCI-H460 is higher in relative viability: 0.948 for the first, 0.981 for the second.

Compared with NCI-H2347, SK-LU-1 is lower in relative viability: 1.15 for the first, 1.12 for the second.

Going from NCI-H1395 to 201T, the relative viability rises from 0.95 to 1.02.

First: NCI-H1915
Second: HCC-827
The relative viability of the first is lower: 0.908 for the first, 1.06 for the second.

Work on LXF-289 yielded a relative viability of 1.02.

Same assay, conditions: 0.3162 µM

Going from Calu-6 to HCC-366, the relative viability falls from 1.05 to 1.04.

Going from NCI-H1666 to NCI-H596, the relative viability falls from 0.99 to 0.908.

Going from LK-2 to NCI-H2087, the relative viability rises from 1.05 to 1.25.

First: SK-MES-1
Second: H3255
The relative viability of the first is lower: 1.01 for the first, 1.05 for the second.

Compared with COR-L23, COR-L 105 is lower in relative viability: 1.04 for the first, 0.957 for the second.

First: IA-LM
Second: LOU-NH91
The relative viability of the first is higher: 1.04 for the first, 0.993 for the second.

Going from NCI-H2170 to NCI-H2405, the relative viability rises from 1.01 to 1.06.

Compared with HOP-62, HCC-44 is lower in relative viability: 1.09 for the first, 1.04 for the second.

Compared with A549, LU99A is higher in relative viability: 1.01 for the first, 1.02 for the second.

First: BEN
Second: HARA
The relative viability of the first is lower: 0.998 for the first, 1.09 for the second.

Going from HCC-78 to NCI-H322M, the relative viability rises from 0.92 to 0.946.

First: LCLC-97TM1
Second: NCI-H2009
The relative viability of the first is higher: 1.03 for the first, 1.02 for the second.

First: A-427
Second: NCI-H661
The relative viability of the first is lower: 1.03 for the first, 1.04 for the second.

Going from NCI-H1734 to NCI-H460, the relative viability falls from 1.07 to 1.02.

Going from NCI-H2347 to SK-LU-1, the relative viability rises from 0.983 to 1.16.

Going from NCI-H1395 to 201T, the relative viability rises from 0.866 to 0.987.

First: NCI-H1915
Second: HCC-827
The relative viability of the first is lower: 1.05 for the first, 1.07 for the second.

With LXF-289 the relative viability was 1.15.

Same assay, conditions: 1 µM

First: Calu-6
Second: HCC-366
The relative viability of the first is lower: 0.987 for the first, 1.07 for the second.

Going from NCI-H1666 to NCI-H596, the relative viability falls from 1.08 to 0.964.

Compared with LK-2, NCI-H2087 is higher in relative viability: 1.02 for the first, 1.37 for the second.

Compared with SK-MES-1, H3255 is lower in relative viability: 1.02 for the first, 1.01 for the second.

Going from COR-L23 to COR-L 105, the relative viability falls from 1.07 to 0.997.

Compared with IA-LM, LOU-NH91 is higher in relative viability: 0.941 for the first, 0.995 for the second.

Compared with NCI-H2170, NCI-H2405 is lower in relative viability: 1.02 for the first, 1.01 for the second.

Going from HOP-62 to HCC-44, the relative viability falls from 1.11 to 0.989.

Compared with A549, LU99A is lower in relative viability: 1.02 for the first, 0.98 for the second.
